In test [1] the test system is His6-AbGtr18. The experiment in a line: Effects of metal ions, EDTA, and DTT on the activity of His6-AbGtr18. As to conditions: donor CMP-Leg5,7Ac2; for Effect on the activity of AbGtr18: 10 mM additive, 40° C., 30 minutes, pH 6.0. The format is biochemical, A. baumannii K8. How it is done:
Effects of metal ions, EDTA, and a reducing reagent DTT on the activity of His6-AbGtr18. Enzymatic assays were carried out in duplicate at 40° C. for 30 minutes in a total volume of 10 μL in citric acid-sodium citrate buffer ([…], pH 6.0) containing 1 mM CMP-Leg5,7Ac2, 1 mM GalNAcα2AA, His6-AbGtr18 (0.64 μM), and 10 mM of CaCl2), CuSO4, MgCl2, MnCl2, NiSO4, ZnCl2, ethylenediaminetetraacetic acid (EDTA), or dithiothreitol (DTT). Reactions without metal ions, EDTA, or DTT were used as controls. The reactions were quenched by adding 40 μL methanol. Samples were centrifuged, and then analyzed by UHPLC as described above for pH profile studies.

For test [2], the system named is MBP-AbGtr18-His6. Type of test: biochemical, A. baumannii K8.
In test [3] the test system is His6-AbGtr18. Type of test: biochemical, A. baumannii K8.
For test [4], the system named is LpCLS or NmCSS, with or without PmAldolase. Type of test: biochemical.

“And” between values parts separate entries of the source, which are not always exact repeats. Equal entries are not always repeated.

In the case of `O=S(=O)([O-])[O-].[Cu+2]` [Cu^2+, CuSO4], in test [1], the “Effect on the activity of AbGtr18” value is reported as “decreased the reaction yields”.
As for `[N-]=[N+]=N[C@@H]([C@@H]1OC(OP(=O)(O)OC[C@H]2O[C@@H](n3ccc(N)nc3=O)[C@H](O)[C@@H]2O)(C(=O)O)C[C@H](O)[C@H]1N=[N+]=[N-])[C@H](O)CO` (stereo partly drawn) [CMP-Neu5,7diN3], the “Suitability as donor substrate for MBP-AbGtr18-His6 (in words)” value (from here on “Suitability as donor substrate”) in test [2] is “limited activity”.
Take `O=C(NCCCO[C@@H]1O[C@H](CO)[C@@H](O[C@@H]2O[C@H](CO)[C@H](O)[C@H](O)[C@H]2O)[C@H](O)[C@H]1O)OCc1ccccc1` [LacβProNHCbz]: in test [3], the “Activity of His6-AbGtr18 towards acceptor (in words)” value (“Activity … (in words)” below) was “limited activity” and the “Yield (%) 20 h” value was 13.8 ± 0.2%.
`CC(=O)NC[C@H]1OC(O)[C@@H](NC(C)=O)[C@@H](O)[C@@H]1NC(C)=O` (stereo partly drawn) [Man2,4,6triNAc]: the “Sialoside yield (%) 20 h” value in test [2] worked out at 2.8 ± 0.1%. The “CMP-Sia Yield (%)” value in test [4] was determined as 24.1 ± 1.1%.
Consider `CC(=O)N[C@H]1[C@H](OCCCNC(=O)OCc2ccccc2)O[C@H](CO)[C@@H](O[C@@H]2O[C@H](CO)[C@H](O)[C@H](O)[C@H]2O)[C@@H]1O` [LacNAcβProNHCbz], for which, in test [3], the “Activity … (in words)” value is listed as “limited activity” and the “Yield (%) 20 h” value is listed as 7.7 ± 0.1%.
As for `CC(=O)N[C@H]1[C@H]([C@H](O)[C@H](O)CN=[N+]=[N-])OC(OP(=O)(O)OC[C@H]2O[C@@H](n3ccc(N)nc3=O)[C@H](O)[C@@H]2O)(C(=O)O)C[C@@H]1O` (stereo partly drawn) [CMP-Neu5Ac9N3], the “Suitability as donor substrate” value in test [2] is reported as “efficient”.
In the case of `[Cl-].[Cl-].[Mg+2]` [Mg^2+, MgCl2], the “Effect on the activity of AbGtr18” value in test [1] was “no significant effect”. The “Effect of increasing Mg^2+ concentration on the activity of His6-AbGtr18” value in test [1] (up to 50 mM) is “decrease the activity”.
As to `CC(=O)NC1C(O)CC(OP(=O)(O)OCC2OC(n3ccc(N)nc3=O)C(O)C2O)(C(=O)O)OC1C(N=[N+]=[N-])C(O)CO` (stereo not drawn) [CMP-Neu5Ac7N3], in test [2], the “Suitability as donor substrate” value was “suitable but less efficient donor substrates”.
For the compound `O=C[C@@H](O)[C@@H](O)[C@H](O)[C@H](O)CO` [Mannose], the “Sialoside yield (%) 20 h” value in test [2] came to 5.0 ± 0.3%. The “CMP-Sia Yield (%)” value in test [4] worked out at 77.7 ± 1.6%.
In the case of `[N-]=[N+]=NCC(O)C(N=[N+]=[N-])C1OC(OP(=O)(O)OCC2OC(n3ccc(N)nc3=O)C(O)C2O)(C(=O)O)CC(O)C1N=[N+]=[N-]` (stereo not drawn) [CMP-Neu5,7,9triN3], the “Suitability as donor substrate” value in test [2] is “limited activity”.
On to `CC(=O)N[C@@H]1C(O)O[C@H](CO)[C@@H](N=[N+]=[N-])[C@@H]1O` (stereo partly drawn) [ManNAc4N3], for which, in test [2], the “Sialoside yield (%) 0.5 h” value was 50.6 ± 0.5% and the “Sialoside yield (%) 20 h” value is on record as 72.5 ± 0.1%. In test [4], the “CMP-Sia Yield (%)” value is recorded as 84.4 ± 1.6%.
For the compound `O=[N+]([O-])c1ccc(O[C@@H]2O[C@H](CO)[C@H](O)[C@H](O)[C@H]2O)cc1` [GalβpNP, 4-nitrophenyl β-D-galactopyranoside], in test [3], the “Activity … (in words)” value was “trace activity” and the “Yield (%) 20 h” value came out at 1.6 ± 0.1%.
For `[N-]=[N+]=NCC(=O)N[C@H]1[C@H]([C@H](O)[C@H](O)CO)OC(OP(=O)(O)OC[C@H]2O[C@@H](n3ccc(N)nc3=O)[C@H](O)[C@@H]2O)(C(=O)O)C[C@@H]1O` (stereo partly drawn) [CMP-Neu5Az], the “Suitability as donor substrate” value in test [2] was “efficient”.
Same read-out and setting: the entry for `Nc1ccn([C@@H]2O[C@H](COP(=O)(O)O[C@@]3(C(=O)O)C[C@H](O)[C@@H](NC(=O)CO)[C@H]([C@H](O)[C@H](O)CO)O3)[C@@H](O)[C@H]2O)c(=O)n1` [CMP-Neu5Gc] is “suitable but less efficient donor substrates”.
For `O=C(O)C1(O)C[C@H](O)[C@@H](O)[C@H]([C@H](O)[C@H](O)CO)O1` (stereo partly drawn) [Kdn], in test [2], the “Sialoside yield (%) 20 h” value was 9.6 ± 0.1% and the “Suitability as donor substrate” value is recorded as “poor donor substrates”. The “CMP-Sia Yield (%)” value in test [4] is over 99%.
In the case of `CC(=O)N[C@H]1[C@H](OCCCNC(=O)OCc2ccccc2)O[C@H](CO)[C@@H](O)[C@@H]1O[C@@H]1O[C@H](CO)[C@H](O)[C@H](O)[C@H]1O` [Galβ1-3GlcNAcβProNHCbz], in test [3], the “Activity … (in words)” value is on record as “much lower efficiencies”, the “Yield (%) 15 min” value amounted to 0.9 ± 0.1% and the “Yield (%) 20 h” value was 23.9 ± 0.3%.
`[N-]=[N+]=NC1C(O)OC(CO)[C@@H](O)[C@@H]1O` (stereo partly drawn) [Man2N3]: the “Sialoside yield (%) 20 h” value in test [2] is reported as “Trace”. Moreover, the “CMP-Sia Yield (%)” value in test [4] was found to be 57.6 ± 0.1%.
`CC(=O)N[C@@H]1C(O)O[C@H](CN=[N+]=[N-])[C@@H](O)[C@@H]1O` (stereo partly drawn) [ManNAc6N3]: in test [2], the “Sialoside yield (%) 0.5 h” value is 55.5 ± 0.6% and the “Sialoside yield (%) 20 h” value worked out at 96.0 ± 2.1%. Also, the “CMP-Sia Yield (%)” value in test [4] is over 99%.
In the same order, the values of `CC(=O)N[C@H]1[C@H](O)[C@H](NC(C)=O)C(O)O[C@@H]1CO` (stereo partly drawn) [Man2,4diNAc] are 5.5 ± 0.1%, 30.3 ± 0.3% and 51.5 ± 0.9%.
As for GalNAcα2AA, in test [3], the “Activity … (in words)” value is “most reactive”, the “Yield (%) 15 min” value was 35.7 ± 2.2% and the “Yield (%) 20 h” value came out at 78.1 ± 0.6%.
The matching figures for `CC(=O)N[C@H]1[C@@H](OCCCNC(=O)OCc2ccccc2)O[C@H](CO)[C@H](O)[C@@H]1O` [GalNAcαProNHCbz]: “lower efficiency”, 14.6 ± 1.1% and 82.5 ± 0.6%.
In the case of `[N-]=[N+]=NC1C(O)CC(OP(=O)(O)OCC2OC(n3ccc(N)nc3=O)C(O)C2O)(C(=O)O)OC1C(O)C(O)CO` (stereo not drawn) [CMP-Neu5N3], the “Suitability as donor substrate” value in test [2] was “poor donor substrates”.
With `CC(=O)N[C@H]1[C@H](OCCCNC(=O)OCc2ccccc2)O[C@H](CO)[C@H](O)[C@@H]1O` [GalNAcβProNHCbz], in test [3], the “Activity … (in words)” value is recorded as “much lower efficiencies”, the “Yield (%) 15 min” value came to 1.7 ± 0.2% and the “Yield (%) 20 h” value is on record as 33.5 ± 0.8%.
Take `CC(=O)N[C@H]1[C@H]([C@@H](O)[C@@H](O)CO)O[C@@](O)(C(=O)O)C[C@@H]1O` [Neu5Ac]: in test [2], the “Sialoside yield (%) 0.5 h” value came out at 47.4 ± 1.7%, the “Sialoside yield (%) 20 h” value is given as 93.3 ± 0.6% and the “Suitability as donor substrate” value is listed as “efficient”. In addition, the “CMP-Sia Yield (%)” value in test [4] is recorded as over 99%.
`CC(=O)N[C@H]1[C@H](OCCCNC(=O)OCc2ccccc2)O[C@H](CO)[C@H](O)[C@@H]1O[C@@H]1O[C@H](CO)[C@H](O)[C@H](O)[C@H]1O` [Galβ1-3GalNAcβProNHCbz]: in test [3], the “Activity … (in words)” value is recorded as “trace activity” and the “Yield (%) 20 h” value was “Trace”.
The matching figures for `CC(=O)N[C@H]1[C@@H](OCCCNC(=O)OCc2ccccc2)O[C@H](CO)[C@H](O)[C@@H]1O[C@@H]1O[C@H](CO)[C@H](O)[C@H](O)[C@H]1O` [Galβ1-3GalNAcαProNHCbz]: “trace activity” and “Trace^[e]”.
The matching figures for `CC(=O)N[C@H]1[C@H](OCCCNC(=O)OCc2ccccc2)O[C@H](CO)[C@@H](O)[C@@H]1O` [GlcNAcβProNHCbz]: “trace activity” and 1.0 ± 0.1%.
For `O=C(CO)N[C@@H]1C(O)O[C@H](CO)[C@@H](O)[C@@H]1O` (stereo partly drawn) [ManNGc], in test [2], the “Sialoside yield (%) 0.5 h” value was found to be 13 ± 0.4% and the “Sialoside yield (%) 20 h” value amounted to 71.6 ± 2.5%. Moreover, in test [4], the “CMP-Sia Yield (%)” value is listed as over 99%.
Turning to `C[C@@H](O)[C@@H](N=[N+]=[N-])[C@@H]1OC(O)(C(=O)O)C[C@H](O)[C@H]1N=[N+]=[N-]` (stereo partly drawn) [Leg5,7diN3], in test [2], the “Sialoside yield (%) 0.5 h” value was found to be 44.3 ± 1.6%, the “Sialoside yield (%) 20 h” value is recorded as 68.4 ± 1.5% and the “Suitability as donor substrate” value is reported as “suitable but less efficient donor substrates”. Further, the “CMP-Sia Yield (%)” value in test [4] is reported as over 99%.
For `CC(=O)N[C@H]1[C@@H](O)[C@H](O)[C@@H](CO)O[C@@H]1O` [ManNAc], in test [2], the “Sialoside yield (%) 0.5 h” value is recorded as 37.6 ± 0.4% and the “Sialoside yield (%) 20 h” value was determined as 71.1 ± 0.4%. Moreover, the “CMP-Sia Yield (%)” value in test [4] was over 99%.
For `CC(=O)N[C@H]1[C@@H](OCCCNC(=O)OCc2ccccc2)O[C@H](CO)[C@@H](O)[C@@H]1O` [GlcNAcαProNHCbz], in test [3], the “Activity … (in words)” value is recorded as “much lower efficiencies”, the “Yield (%) 15 min” value is 0.5 ± 0.1% and the “Yield (%) 20 h” value is on record as 20.4 ± 0.1%.
Take `[N-]=[N+]=NCC(=O)NC1C(O)OC(CO)C(O)C1O` (stereo not drawn) [ManNAz]: in test [2], the “Sialoside yield (%) 0.5 h” value is on record as 57.3 ± 0.4% and the “Sialoside yield (%) 20 h” value is 98.4 ± 1.8%. In test [4], the “CMP-Sia Yield (%)” value is over 99%.
For the compound `CC(=O)N[C@@H]([C@H](O)[C@H](NC(C)=O)[C@@H](O)CC(=O)C(=O)O)[C@@H](C)O` [CMP-Leg5,7Ac2, 5,7-diacetamido-3,5,7,9-tetradeoxy-D-glycero-D-galacto-non-2-ulosonic acid], in test [2], the “Sialoside yield (%) 0.5 h” value is 53.5 ± 0.5% and 56.6 ± 1.6%; the “Sialoside yield (%) 20 h” value was 72.6 ± 0.1% and 99.0 ± 0.6%; the “Suitability as donor substrate” value is given as “used efficiently”. The “CMP-Sia Yield (%)” value in test [4] is recorded as over 99%.
On to `O=[N+]([O-])c1ccc(O[C@H]2O[C@H](CO)[C@H](O)[C@H](O)[C@H]2O)cc1` [GalαpNP, 4-Nitrophenyl-α-D-galactopyranoside], for which, in test [3], the “Activity … (in words)” value was “much lower efficiencies” and the “Yield (%) 20 h” value came to 16.7 ± 0.2%.

(Values after patent US20250197905A1, “LEGIONAMINIC ACID GLYCOSYLTRANSFERASES FOR CHEMOENZYMATIC SYNTHESIS OF GLYCANS AND GLYCOCONJUGATES” (The Regents of the University of California, priority 2022, published 2025).)
